Among the data in patent US8349839B2, “Inhibitors of HIV replication” (Boehringer Ingelheim International GmbH, priority 2009, dated 2013) are EC50 and IC50 values, retold here.

Assay [1] deals with HIV-1 replication in C8166 LTRluc cells. The experiment in a line: C8166 HIV-1 Luciferase Assay (EC50). The class given is cell-based. The settings on record: Human immunodeficiency virus 1, 72 h; assay of Example 68; C8166 LTRluc cells infected with HIV-1 at moi 0.005, 3 days. How it is done: (§1) Diluted solutions of stock solutions of compounds of Formula I in DMSO are prepared in assay buffer in Eppendorf tubes 16 h prior to their use in the biological assay, using a minimal supplementary volume of 75 μL of assay buffer in addition to the volume required in the assay. The samples are vortexed for 10 min at RT and incubated for 16 h at 4° C. The equilibrated solutions are centrifuged at 16 000 g for 5 min in a centrifuge equipped with an internal chiller, which is pre-equilibrated at 4° C., and the supernatant is collected. The portion of supernatant required for the serial dilutions in the biological assay is transferred to the compound dilution plate and a 75 μL portion of the remaining supernatant is transferred to a 1.4 mL tube (Micronic). A 25 μL volume of DMSO is promptly added and the sample is submitted for concentration determination by HPLC, along with the stock solution of the compound in DMSO as a standard for concentration determination analysis.
C8166 HIV-1 Luciferase Assay (EC50)
The assay used to measure inhibition of HIV replication is as described in WO 2004/050643, pages 73-75, incorporated herein by reference, with the following modifications:
Serial dilutions of HIV-1 inhibitors are prepared in complete media from DMSO stock solutions. Eleven serial dilutions of desired concentration are prepared in a 1 mL deep well titer plate (96 wells). The 12th well contains complete media with no inhibitor and serves as the positive control. All samples contain the same concentration of DMSO (<0.1% DMSO). Inhibitor is added, to triplicate wells, of a 96 well tissue culture treated clear view black microtiter plate (Corning Costar catalogue #3904). The total volume per well is 200 μL of media containing the cells and inhibitor. The last row is reserved for uninfected C8166 LTRluc cells to serve as the background blank control and the first row is media alone.
Count C8166 LTRluc cells and place in a minimal volume of complete RPMI 1640 in a tissue culture flask (ex. 30×10^6 cells in 10 mL media/25 cm^2 flask). Infect cells with HIV-1 at a moi of 0.005. Incubate cells for 1.5 h at 37° C. on a rotating rack in a 5% CO2 incubator. Resuspend cells in complete RPMI to give a final concentration of 25,000-cells/well. Add cells to wells of 96 well microtiter plate containing inhibitors. Add 25,000 uninfected C8166-LTRluc cells/well in 200 μL complete RPMI to last row for background control. Incubate cells at 37° C. in 5% CO2 incubator for 3 days.
50 μL Steady Glo (luciferase substrate T1/2=5 hours Promega catalogue # E2520) is added to each well of the 96 well plate. The relative light units (RLU) of luciferase are determined using a luminescence plate reader. The calculated % inhibition values are used to determine EC50, slope factor (n) and maximum inhibition (Imax).

Assay [2] concerns the target HIV reverse transcriptase (Human immunodeficiency virus type 1 group M subtype B, UniProt P04585). Nature of the assay: HIV Reverse Transcriptase Assay (IC50). As to conditions: assay of Example 67; 1 mM of ATP added to the reaction mixture. The class given is biochemical. How it is done:
as §1
HIV Reverse Transcriptase Assay (IC50)
The assay used to measure inhibition of HIV reverse transcriptase is as described in WO 2006/034583, pages 52-53, incorporated herein by reference, except that 1 mM of ATP was added to the reaction mixture.

SMILES strings stand for the structures. pEC50, pIC50: −log10 of the molar value. Some results are limits rather than exact numbers.

`CN(C)Cc1ccc(-c2ccc3oc4c(c3c2)N(CC2CCCO2)S(=O)(=O)N=C4c2ccccc2)cc1` (centres unmarked) [Compound 3003]: in assay [1], the pEC50 is 6.02. Moreover, the pIC50 in assay [2] is below 6.65.
For `CN1CCN(c2ccc(-c3nc(=O)n(CCN4CCCC4)c4c3oc3ccc(Cl)cc34)cn2)CC1` [Compound 2232] the same measures were 6.62 and 7.66.
Consider `COCCn1c(=O)nc(-c2ccc(NC(=O)CN3CCOCC3)cc2)c2oc3ccccc3c21` [Compound 1005], for which the negative logarithm of the IC50 (pIC50) in assay [2] was 6.67.
In assay [1], `COCCn1c(=O)nc(-c2ccc(N)cc2)c2oc3ccc(Br)cc3c21` [Compound 2133] had a negative-log EC50 (pEC50) of 5.33. For the same compound, the negative logarithm of the IC50 (pIC50) in assay [2] is 6.12.
For `CCNCC(=O)Nc1ccc(-c2nc(=O)n(CCOC)c3c2oc2ccc(-c4ccc5c(c4)N(C)CCC5)cc23)cc1` [Compound 2039] the same measures were 6.36 and 7.62.
In the same order, the values of `COCCn1c(=O)nc(-c2ccc(NC(=O)NCCN3CCCC3)cc2)c2oc3ccccc3c21` [Compound 1016] are 5.17 and 6.97.
Turning to `O=c1nc(-c2ccccc2)c2oc3ccccc3c2n1CCN1CCCC1` [Compound 1001], the pIC50 in assay [2] was 5.63.
Turning to `O=C(O)Cn1c2ccc(Cl)cc2c2c1c(-c1ccccc1)nc(=O)n2CCN1CCCC1` [Compound 4001], the pEC50 in assay [1] was 5.24. Moreover, in assay [2], the pIC50 was 6.55.
For `COCCn1c(=O)nc(-c2ccc(N3CCN(C(C)C)CC3)nc2)c2oc3ccccc3c21` [Compound 1073] the same measures were 6.14 and 6.97.
With `COCCn1c(=O)nc(-c2ccc(NC(=O)CN3CCCC3)c(OC)c2)c2oc3ccccc3c21` [Compound 1056], in assay [2], the pIC50 was 5.60.
On the same count and under the same terms, for `CN(C)Cc1ccc(-c2ccc3oc4c(-c5ccccc5)nc(=O)n(CC(=O)NC5CC5)c4c3c2)cc1` [Compound 2310] the value was 6.00.
In turn, `COCCn1c(=O)nc(-c2ccc(N(C)CCN(C)C)nc2)c2oc3ccccc3c21` [Compound 1070] gave a negative logarithm of the EC50 (pEC50) in assay [1] of 5.92. Further, the negative-log IC50 (pIC50) in assay [2] is 6.51.
`CCNCC(=O)Nc1ccc(-c2nc(=O)n(CCOC)c3c2oc2ccc(-c4cncs4)cc23)cc1` [Compound 2021]: the pEC50 in assay [1] was 6.70. Besides, in assay [2], the pIC50 was 7.70.
For `CN1CCN(CC(=O)Nc2ccc(-c3nc(=O)n(C)c4c3oc3ccccc34)cc2)CC1` [Compound 1002] the same measures were 4.82 and 4.96.
In assay [1], `CCCCCn1c(=O)nc(-c2ccc3c(c2)nc(C)n3C)c2oc3ccc(-c4cnn(C)c4)cc3c21` [Compound 2287] gave a negative-log EC50 (pEC50) of 7.74. Besides, the pIC50 in assay [2] was 8.30.
For `CCNCC(=O)Nc1ccc(-c2nc(=O)n(CCOC)c3c2oc2ccc(-c4cccc5c4CCN(C)C5)cc23)cc1` [Compound 2115], in assay [2], the pIC50 is 5.94.
In turn, `CCCCCn1c(=O)nc(-c2ccc(N3CCN(C)CC3)nc2)c2oc3ncc(C#N)cc3c21` [Compound 5024] had a pEC50 in assay [1] of 7.49. Further, the negative logarithm of the IC50 (pIC50) in assay [2] was 8.22.
`CCNCC(=O)Nc1ccc(-c2nc(=O)n(CCOC)c3c2oc2ccccc23)cc1` [Compound 1009] had a pEC50 in assay [1] of 6.17. The pIC50 in assay [2] is 7.14.
In the same order, the values of `COCCCn1c(=O)nc(-c2ccc(N3CCN(C(C)C)CC3)nc2)c2oc3cnccc3c21` [Compound 5019] are 6.55 and 7.60.
In the same order, the values of `COCCn1c(=O)nc(-c2ccc(NC(=O)CN(C)C)cc2)c2oc3ccccc3c21` [Compound 1004] are 5.44 and 5.94.
In the same order, the values of `CC(=O)N(C)C1CCN(CCn2c(=O)nc(-c3ccccc3)c3oc4ccc(Br)cc4c32)C1` (centres unmarked) [Compound 2038] are 5.54 and 6.60.
The compound `CN1CCc2cc(-c3ccc4oc5c(-c6ccc(F)cc6)nc(=O)n(CCN6CCCC6C(N)=O)c5c4c3)ccc2C1` (centres unmarked) [Compound 2025] gave a negative logarithm of the EC50 (pEC50) in assay [1] of 7.28. Moreover, the negative logarithm of the IC50 (pIC50) in assay [2] was 7.46.
For `COCCCn1c(=O)nc(-c2ccc(N3CCN(C)CC3)nc2)c2oc3ncc(-c4cncs4)cc3c21` [Compound 5028] the same measures were 7.68 and 8.39.
In the same order, the values of `COCCCN1c2c(oc3ccc(-c4ccc(CN(C)C)cc4)cc23)C(c2ccccc2)=NS1(=O)=O` [Compound 3004] are 6.28 and below 6.69.
In the same order, the values of `COCCCN1CCN(c2ccc(-c3nc(=O)n(CCCOC)c4c3oc3ncccc34)cn2)CC1` [Compound 5001] are 6.23 and 7.22.
In assay [1], `O=c1nc(-c2ccccc2)c2oc3ccc(Cl)cc3c2n1CCN1CCCC1` [Compound 2001] had a pEC50 of 5.43. Also, the pIC50 in assay [2] was 6.23.
For `COCCn1c(=O)nc(-c2ccc(NS(C)(=O)=O)cc2)c2oc3ccc(-c4ccc(CN(C)C)cc4)cc3c21` [Compound 2194] the same measures were 5.82 and 6.40.
In the same order, the values of `CNC1CCN(c2ccc(-c3nc(=O)n(CCOC)c4c3oc3ccc(Cl)cc34)cn2)C1` (centres unmarked) [Compound 2254] are 6.68 and 7.40.
In the same order, the values of `CN(C)Cc1ccc(-c2ccc3oc4c(-c5ccccc5)nc(=O)n(-c5ccccc5)c4c3c2)cc1` [Compound 2213] are 6.63 and 7.07.
Take `COCCn1c(=O)nc(-c2ccc(OCCN(C)C)cc2)c2oc3ccccc3c21` [Compound 1036]: in assay [1], the negative-log EC50 (pEC50) is 4.85. Also, the pIC50 in assay [2] is 6.20.
Turning to `COCCCn1c(=O)nc(-c2ccc(N3CCC(NCC(F)F)CC3)nc2)c2oc3ncc(-c4cnn(C)c4)cc3c21` [Compound 5004], the pIC50 in assay [2] was 7.85.
As for `CC(C)N1CCN(c2ccc(-c3nc(=O)n(CC(=O)N4CC[C@H](F)C4)c4c3oc3ccc(Cl)cc34)cn2)CC1` [Compound 2277], the negative-log EC50 (pEC50) in assay [1] was 7.04. Moreover, the pIC50 in assay [2] is 8.15.
In the same order, the values of `O=c1nc(-c2ccccc2)c2oc3ccc(Cl)cc3c2n1CCN1CCC(F)(F)C1` [Compound 2009] are 5.54 and 6.49.
For `CCNCc1nc2cc(-c3nc(=O)n(CCCOC)c4c3oc3ccc(Cl)cc34)ccc2n1C` [Compound 2273] the same measures were 7.24 and 8.10.
`CN1CCN(c2ccc(-c3nc(=O)n(C)c4c3oc3ccc(Br)cc34)cn2)CC1` [Compound 2257]: the pEC50 in assay [1] is 6.72. For the same compound, the negative-log IC50 (pIC50) in assay [2] is 7.51.
For `COCCn1c(=O)nc(-c2ccc(N3CCN(C)CC3)nc2)c2oc3ccc(Cl)cc3c21` [Compound 2260] the same measures were 6.05 and 7.12.
`CCNCC(=O)Nc1ccc(-c2nc(=O)n(C)c3c2oc2ccccc23)cc1` [Compound 1051] gave a negative-log EC50 (pEC50) in assay [1] of 6.01. Besides, the negative-log IC50 (pIC50) in assay [2] is 6.28.

In general, pEC50 refers to −log10 of the EC50, conventionally taken in molar units. Read a low pEC50 as a high EC50. As a reminder, the pIC50 is the IC50 on a negative log10 scale, so that one unit is a factor of ten.
